One assay deals with T1, MAT2A homodimer (Homo sapiens, UniProt P31153).
T1 construct: inferred from Ni sepharose purification and imidazole elution; made in house; host or cells: SF9 insect cells, recombinant baculovirus (Bac to Bac, pFASTBAC1)
Put plainly: MAT2A biochemical assay (phosphate release, PiColorLock Gold). Particulars: recombinant MAT2A homodimer, 60 min pre-incubation, 25° C.; read-out: Enzyme Inhibition. On the procedure: Mat2A protein was expressed by recombinant baculovirus in SF9 infected cells using the Bac to Bac system cloned into the pFASTBAC1 vector (Invitrogen, Carlsbad, CA). Recombinant MAT2A was isolated from the cell lysate of 150 g of infected cells using HP Ni sepharose column chromatography. Recombinant MAT2A homodimer was eluted with 250 and 500 mM imidazole, and fractions containing MAT2A were identified by sodium dodecyl sulfate polyacrylamide gel electrophoresis and pooled.
For determination of the inhibitory potency of compounds against the MAT2A homodimer, protein was diluted to 4 μg/mL in assay buffer (50 mM Tris, pH 8.0, 50 mM KCl, 15 mM MgCl2, 0.3 mM EDTA, 0.005% [w/v] bovine serum albumin [BSA]). Test compound was prepared in 100% dimethyl sulfoxide (DMSO) at 50× the desired final concentration. A 1 μL volume of compound dilution was added to 40 μL of enzyme dilution and the mixture was allowed to equilibrate for 60 minutes at 25° C. The enzymatic assay was initiated by the addition of 10 μL of substrate mix (500 μM ATP, pH 7.0, 400 μM L-methionine in 1× assay buffer), and the mixture was incubated for a further 60 minutes at 25° C. The reaction was halted and the liberated phosphate released by the enzyme in stoichiometric amounts by the production of S-adenosyl methionine (SAM) was measured using the PiColorLock Gold kit (Innova Biosciences, UK). Absolute product amounts were determined by comparison to a standard curve of potassium phosphate buffer, pH 8.0.

The next assay has as its system HCT116 MTAP−/−. Put plainly: Inhibition of cellular proliferation (Cell Titer Glo), HCT116 MTAP-/-. Particulars: Homo sapiens, HCT-116, 96 h, 4 days, read-out: 4 Day Relative Growth Inhibition (MTAP −/−). It counts as cell-based. The protocol:
(§1) Test compound impact on cancer cell growth was assessed by treating cancer cells with compound for 4 days and then measuring proliferation using an ATP-based cell proliferation readout (Cell Titer Glo, Promega Corporation).
(§2) In a typical assay an isogenic pair of HCT116 human colon carcinoma cell lines which vary only in MTAP deletion status (HCT116 MTAP+/+ and HCT116 MTAP−/−) were plated in 96-well dishes at appropriate cell density. Following 24 hours, cells were then treated with the candidate MAT2A inhibitor. Prior to addition to cells, the compound was first serially diluted in 100% DMSO, typically as a 3-fold serial dilution starting at 500× top dose with 10 dose points including DMSO only control. Compound was then transferred to a working stock plate in cell culture media by adding 5 μL of compound in DMSO to 495 μL of cell culture media. This working stock was then added to cells via a further 5-fold dilution, by adding 25 μL of working stock to 100 μL of cells in culture media. Following compound addition, cells were incubated at 37° C./5% CO2 for 4 days.
(§3) To measure inhibition of cellular proliferation, cells were allowed to equilibrate to room temperature for 30 minutes, and were then treated with 125 μL of Cell Titer Glo reagent. The plate was then covered with aluminum foil and shaken for 15 minutes to ensure complete mixing and full cell lysis. Luminescent signal was then measured using a plate-based luminometer Veritas version 1.9.2 using ATP standard curve to confirm assay reproducibility from run to run. This luminescence measure was converted to a proliferation index by subtracting from each data point the ATP luminescence signal measured from a bank (no cells) well and dividing by the ATP luminescence signal measured in 0.2% DMSO control well adjusted for signal in blank well. Compound activity was then represented as a percentage change in proliferation relative to a within-plate DMSO control against log 10 of compound concentration in molar (M) units.

The test system of a further assay is HCT116 MTAP+/+. Put plainly: Inhibition of cellular proliferation (Cell Titer Glo), HCT116 MTAP+/+. It is filed as cell-based. Particulars: Homo sapiens, HCT-116, 96 h, 4 days, read-out: 4 Day Relative Growth Inhibition (MTAP +/+). On the procedure:
as §1, §2, §3
(In general: ATP-based viability assays read luminescence as a measure of living cells.)

Assay [1] concerns MAT2A activity (SAM) in HCT116 cells with deleted MTAP gene. Put plainly: Cellular assay of target engagement (SAM) by LC-MS/MS. It counts as cell-based. Particulars: Homo sapiens, HCT-116; HCT116 MTAP −/−, 72 hrs; read-out: Cell 72 h SAM Inhibition (MTAP −/−). On the procedure: Measurement of MAT2A activity in cells was made by direct quantitation of the abundance of the product of its enzymatic activity, SAM. Cancer cells were treated with candidate MAT2A inhibitors for a suitable incubation period, and the cells were then lysed using a reagent which quenched any further enzyme activity. Soluble metabolites including SAM were collected and SAM itself was directly measured from the lysate using quantitative LC-MS/MS.
A typical assay was performed using an HCT116 human colon carcinoma cell line which was genetically engineered to delete the MTAP gene (commercially available from Horizon Discovery). This cell line was utilized because it was determined that loss of the MTAP gene predicts sensitivity to MAT2A inhibitors. Cells were plated in 96-well dishes at appropriate cell density. Following 24 hours, cells were then treated with the candidate MAT2A inhibitor. Prior to addition to cells, the compound was first serially diluted in 100% DMSO, typically as a 3-fold serial dilution starting at 500× top dose with 10 dose points including DMSO only control. Compound was then transferred to a working stock plate in cell culture media by adding 5 μL of compound in DMSO to 495 μL of cell culture media. This working stock was then added to cells via a further 5-fold dilution, by adding 25 μL of working stock to 100 μL of cells in culture media. Following compound addition, cells were incubated at 37° C./5% CO2 for 72 hrs.
To quantitate SAM levels following compound treatment, cells were gently washed once in ammonium carbonate buffer (75 mM at pH 7.4), placed on dry ice, and lysed with metabolite extraction buffer (80% cold methanol and 20% water (v/v) with acetic acid at 1M final concentration with 200 ng/mL deuterated d3-SAM as internal control). Following centrifugation at 4° C. at 3,200 rpm for 30 minutes, the supernatant was collected and stored at −80° C. until analysis by Liquid Chromatography with tandem Mass Spectrometry (LC-MS/MS). LC-MS/MS analysis was performed using an API6500 Mass Spectrometer (Sciex, Framingham, MA, USA) operating in positive ion spray mode and equipped with a Waters UPLC Acquity (Waters, Milford, MA, USA) BEH Amide column. Multiple Reaction Monitoring data was acquired for SAM and the d3-SAM standard, using a mass transition pair at m/z 399.2→250.1 and 402.2→250.1, respectively. In a typical LC-MS/MS analysis, the initial flow rate was 0.5 ml/min of 25% mobile phase A (acetonitrile and water at 5:95 (v/v) with 1% formic acid and 10 mM ammonium acetate) and 75% mobile phase B (acetonitrile and water at 95:5 (v/v) with 1% formic acid and 10 mM ammonium acetate), 0.2-0.5 minutes with 75%-35% mobile phase B, 25%-65% mobile phase A, at 0.5 min 65% mobile phase A and 35% mobile phase B, 1.0-1.1 minutes with 35%-75% mobile phase B, 65%-25% mobile phase A, at 1.1 min 25% mobile phase A and 75% mobile phase B with a total run time of 1.5 minutes.

Bounds are passed on as bounds.

T1 sequence (P31153 whole entry): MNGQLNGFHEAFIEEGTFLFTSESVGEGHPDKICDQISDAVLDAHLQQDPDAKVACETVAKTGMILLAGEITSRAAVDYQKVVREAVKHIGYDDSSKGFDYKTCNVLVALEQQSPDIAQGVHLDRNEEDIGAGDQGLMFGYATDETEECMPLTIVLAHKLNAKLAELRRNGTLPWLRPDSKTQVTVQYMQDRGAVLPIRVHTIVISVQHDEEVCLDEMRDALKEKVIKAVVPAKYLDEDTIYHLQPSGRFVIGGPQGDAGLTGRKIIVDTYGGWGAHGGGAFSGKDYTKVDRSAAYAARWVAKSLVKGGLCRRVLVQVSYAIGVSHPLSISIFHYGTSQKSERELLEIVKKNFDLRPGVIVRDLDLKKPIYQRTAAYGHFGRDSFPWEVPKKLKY

For `Cn1cc2cc(-n3nc4ccc(OCC(F)F)nc4c(-c4ccc(OC(F)(F)F)nc4)c3=O)ccc2n1` [Example 128], the IC50 at MAT2A homodimer is below 0.1 µM; in the assay with HCT116 MTAP−/−, below 0.1 µM; in the assay with HCT116 MTAP+/+, at least 1 µM; in assay [1] it was below 0.1 µM.
With `Cn1cc2cc(-n3nc4ccc(OCC(F)F)nc4c(-c4ccc(Br)cc4)c3=O)ccc2n1` [Example 200, 4-(4-bromophenyl)-6-(2,2-difluoroethoxy)-2-(2-methyl-2H-indazol-5-yl)pyrido[3,2-c]pyridazin-3(2H)-one], the IC50 on MAT2A homodimer is below 0.1 µM; in the assay with HCT116 MTAP−/− it was below 0.1 µM; in the assay with HCT116 MTAP+/+, at least 1 µM; in assay [1] it was below 0.1 µM.
Regarding `[2H]C([2H])([2H])Oc1ccc(-c2c(=O)n(-c3ccc4ncsc4c3)nc3ccc(OCC(F)F)nc23)cc1` [Example 151], the IC50 is below 0.1 µM on MAT2A homodimer, below 0.1 µM with HCT116 MTAP−/−, at least 1 µM in the assay with HCT116 MTAP+/+ and below 0.1 µM in assay [1].
As for `[2H]C([2H])([2H])Oc1ccc(-c2c(=O)n(-c3ccc4nn(C)cc4c3)nc3ccc(OCCF)nc23)cc1` [Example 157], the IC50 is below 0.1 µM on MAT2A homodimer, 0.1 to 1 µM with HCT116 MTAP−/−, at least 1 µM with HCT116 MTAP+/+ and 0.1 to 1 µM in assay [1].
On to `CCNc1ccc2nn(-c3ccc4nc(C)n(C)c4c3)c(=O)c(-c3ccc(C(F)F)nc3)c2n1` [Example 327], for which the IC50 was below 0.1 µM at MAT2A homodimer, below 0.1 µM in the assay with HCT116 MTAP−/−, at least 1 µM in the assay with HCT116 MTAP+/+ and below 0.1 µM in assay [1].
As to `CC(C)COc1ccc2nn(-c3ccc4nn(C)cc4c3)c(=O)c(-c3ccc(OC(F)F)cc3)c2n1` [Example 141], the IC50 at MAT2A homodimer is below 0.1 µM; with HCT116 MTAP−/− it was 0.1 to 1 µM; in the assay on HCT116 MTAP+/+, at least 1 µM; in assay [1] it was below 0.1 µM.
As to `CCSc1ccc2nn(-c3ccc4nn(C)cc4c3)c(=O)c(-c3ccc(OC(F)F)cc3)c2n1` [Example 158], the IC50 at MAT2A homodimer was below 0.1 µM; with HCT116 MTAP−/−, below 0.1 µM; in the assay with HCT116 MTAP+/+, at least 1 µM; in assay [1] it was below 0.1 µM.
In the case of `Cn1cc2cc(-n3nc4ccc(NCC5CC5)nc4c(-c4ccc(C5CC5)nc4)c3=O)ccc2n1` [Example 315], the IC50 was below 0.1 µM on MAT2A homodimer, below 0.1 µM in the assay with HCT116 MTAP−/−, at least 1 µM in the assay with HCT116 MTAP+/+ and below 0.1 µM in assay [1].
Regarding `COC1CC=C(c2c(=O)n(-c3ccc4nn(C)cc4c3)nc3ccc(OCC(F)F)nc23)CC1` (centres unmarked) [Example 152], the IC50 on MAT2A homodimer was below 0.1 µM; in the assay with HCT116 MTAP−/−, below 0.1 µM; with HCT116 MTAP+/+, 0.1 to 1 µM; in assay [1], below 0.1 µM.
As for `CN1CCOc2ccc(-n3nc4ccc(OCC(F)F)nc4c(-c4ccc(OC(F)F)cc4)c3=O)cc21` [Example 180], the IC50 was below 0.1 µM on MAT2A homodimer, below 0.1 µM in the assay on HCT116 MTAP−/−, at least 1 µM in the assay on HCT116 MTAP+/+ and below 0.1 µM in assay [1].
With `CCCc1ccc2nn(-c3ccc4nn(C)cc4c3)c(=O)c(-c3ccc(OC(F)F)cc3)c2n1` [Example 205, 4-(4-(difluoromethoxy)phenyl)-2-(2-methyl-2H-indazol-5-yl)-6-propylpyrido[3,2-c]pyridazin-3(2H)-one], the IC50 on MAT2A homodimer is below 0.1 µM; with HCT116 MTAP−/−, below 0.1 µM; in the assay with HCT116 MTAP+/+ it was at least 1 µM; in assay [1], below 0.1 µM.
As for `O=c1c(-c2ccc(OC(F)F)cc2)c2nc(OCC(F)F)ccc2nn1-c1ccc2ncncc2c1` [Example 179], the IC50 on MAT2A homodimer is below 0.1 µM; in the assay on HCT116 MTAP−/−, 0.1 to 1 µM; in the assay with HCT116 MTAP+/+, at least 1 µM; in assay [1], below 0.1 µM.
Take `Cn1cc2cc(-n3nc4ccc(OCC5CC5)nc4c(-c4ccc(Cl)cc4)c3=O)ccc2n1` [Example 101, 4-(4-chlorophenyl)-6-(cyclopropylmethoxy)-2-(2-methyl-2H-indazol-5-yl)pyrido[3,2-c]pyridazin-3(2H)-one]: the IC50 at MAT2A homodimer is below 0.1 µM; in the assay on HCT116 MTAP−/− it was 0.1 to 1 µM; in the assay on HCT116 MTAP+/+, at least 1 µM; in assay [1], below 0.1 µM.
For the compound `Cn1cc2cc(-n3nc4ccc(OCC(F)F)nc4c(-c4ccc(C5CC5)nc4)c3=O)ccc2n1` [Example 107], the IC50 at MAT2A homodimer was below 0.1 µM; in the assay with HCT116 MTAP−/−, below 0.1 µM; in the assay with HCT116 MTAP+/+ it was at least 1 µM; in assay [1] it was below 0.1 µM.
For the compound `O=c1c(-c2ccc(OC(F)F)cc2)c2nc(OCC(F)F)ccc2nn1-c1ccc2ncsc2c1` [Example 169], the IC50 (on MAT2A homodimer; with HCT116 MTAP−/−; in the assay with HCT116 MTAP+/+; in assay [1]) was below 0.1 µM throughout.
With `Cn1cc2cc(-n3nc4c(CO)cc(OCC(F)F)nc4c(-c4ccc(OC(F)F)cc4)c3=O)ccc2n1` [Example 209, 6-(2,2-difluoroethoxy)-4-(4-(difluoromethoxy)phenyl)-8-(hydroxymethyl)-2-(2-methyl-2H-indazol-5-yl)pyrido[3,2-c]pyridazin-3(2H)-one], the IC50 was below 0.1 µM at MAT2A homodimer, below 0.1 µM with HCT116 MTAP−/−, at least 1 µM in the assay on HCT116 MTAP+/+ and below 0.1 µM in assay [1].
With `[2H]C([2H])([2H])C([2H])([2H])Nc1ccc2nn(-c3ccc4nn(C)cc4c3)c(=O)c(-c3ccc(C)nc3)c2n1` [Example 323], the IC50 (at MAT2A homodimer; in the assay on HCT116 MTAP−/−; in the assay with HCT116 MTAP+/+; in assay [1]) was below 0.1 µM each time.

The record behind these values is patent publication US12077534B2, “Aza-heterobicyclic inhibitors of MAT2A and methods of use for treating cancer” (Les Laboratoires Servier SAS, priority 2018, dated 2024).
